Series [1] deals with T1, Lanosterol synthase (Rattus norvegicus) (UniProt P48450).
T1 sequence (whole entry): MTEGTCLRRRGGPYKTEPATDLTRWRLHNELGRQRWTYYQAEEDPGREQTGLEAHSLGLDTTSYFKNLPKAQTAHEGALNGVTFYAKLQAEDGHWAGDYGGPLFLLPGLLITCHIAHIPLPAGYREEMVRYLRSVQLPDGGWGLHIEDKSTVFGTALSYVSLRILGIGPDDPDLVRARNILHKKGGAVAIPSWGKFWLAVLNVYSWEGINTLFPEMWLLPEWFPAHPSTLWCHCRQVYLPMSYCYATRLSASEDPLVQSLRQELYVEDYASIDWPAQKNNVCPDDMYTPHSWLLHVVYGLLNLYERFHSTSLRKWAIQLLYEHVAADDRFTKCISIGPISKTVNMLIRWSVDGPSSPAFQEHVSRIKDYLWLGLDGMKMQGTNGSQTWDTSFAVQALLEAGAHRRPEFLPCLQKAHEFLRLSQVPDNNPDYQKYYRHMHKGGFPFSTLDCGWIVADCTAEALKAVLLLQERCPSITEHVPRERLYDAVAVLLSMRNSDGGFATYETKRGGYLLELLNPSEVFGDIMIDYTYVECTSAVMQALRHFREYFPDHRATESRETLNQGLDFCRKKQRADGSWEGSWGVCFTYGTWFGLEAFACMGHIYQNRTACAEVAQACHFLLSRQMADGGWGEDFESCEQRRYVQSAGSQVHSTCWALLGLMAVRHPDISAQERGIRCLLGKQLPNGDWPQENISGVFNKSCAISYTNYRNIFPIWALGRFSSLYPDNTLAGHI
In words: Percent inhibition of rat microsomal oxidosqualene cyclase-lanosterol synthase (OSC) at 100 nM.

Series [2] is filed under the species Rattus norvegicus. Description: Effective dose for the 50% inhibition of rat cholesterol biosynthesis. The series is classed as functional.
For series [3], the species on record is Rattus norvegicus. In words: Effective dose for the 80% inhibition of rat cholesterol biosynthesis. It is filed as functional.
The nature of series [4]: pKa was determined. The series is classed as physicochemical.
Series [5] deals with Rattus norvegicus. Description: Percent feeding effect was determined after oral administration of 100 mg/kg in rat. It is filed as functional.
The subject of series [6] is Rattus norvegicus. Description: Percent reduction in food intake was determined after oral administration of 100 mg/kg in rat after 24 hours.
For series [7], the system named is Rattus norvegicus. Description: Percent reduction in food intake was determined after oral administration of 50 mg/kg in rat after 24 hours. It is filed as functional.
Series [8] can be described thus: Concentration for the inhibition of rat microsomal oxidosqualene cyclase-lanosterol synthase (OSC).

SMILES strings stand for the structures.

In turn, `O=C(C1CCN(S(=O)(=O)c2ccc(Br)cc2)CC1)N1CCC(c2ccncc2)CC1` showed an inhibition in series [1] of 100%. In the series filed under Rattus norvegicus [2], this compound yielded an ED50 of 0.5 mg/kg. The compound further had an ED80 in the series filed under Rattus norvegicus [3] of 4.7 mg/kg.

Take `O=C(N1CCN(c2ccncc2Cl)CC1)N1CCN(S(=O)(=O)c2ccc(Cl)cc2)CC1`: the pKa in series [4] came to 5.8. This compound gave an inhibition in series [1] of 87%. Also, the ED50 in the series filed under Rattus norvegicus [2] was 0.6 mg/kg. In the series filed under Rattus norvegicus [3], this compound returned an ED80 of 1.4 mg/kg. This compound also showed an Effect in the series on Rattus norvegicus [5] of 14%.

Consider `O=C(C1CCN(c2ncncc2Br)CC1)N1CCN(S(=O)(=O)c2ccc(Br)cc2)CC1`, for which the inhibition in series [1] worked out at 47%. In the series listed under Rattus norvegicus [2], this compound came in with an ED50 of more than 2 mg/kg.

Take `O=C(C1CCN(c2ccncc2F)CC1)N1CCN(S(=O)(=O)c2ccc(C(F)(F)F)cc2)CC1`: the pKa in series [4] came out at 6.7. For the same compound, the inhibition in series [1] was determined as 100%. Further, the 50% effect level in the series filed under Rattus norvegicus [2] (ED50) was put at a dose of 0.4 mg/kg. Besides, in the series filed under Rattus norvegicus [3], the ED80 was 1 mg/kg.

In the case of `O=C(N1CCN(c2ccncc2Cl)CC1)N1CCN(S(=O)(=O)c2ccc(F)cc2)CC1`, the inhibition in series [1] is 100%. Also, the ED50 in the series filed under Rattus norvegicus [2] was 1.1 mg/kg. The compound also displayed an ED80 in the series filed under Rattus norvegicus [3] of 2.3 mg/kg.

In turn, `O=C(N1CCC(c2ccncc2)CC1)N1CCN(S(=O)(=O)c2ccc(Br)cc2)CC1` displayed an inhibition in series [1] of 94%. The same compound displayed an ED50 in the series filed under Rattus norvegicus [2] of 0.4 mg/kg. For the same compound, in the series listed under Rattus norvegicus [3], the ED80 was 1.8 mg/kg. In the series on Rattus norvegicus [5], this compound displayed an Effect of 23%.

In series [1], `O=C(C1CCN(c2ccncc2Br)CC1)N1CCN(S(=O)(=O)c2ccc(Br)cc2)CC1` gave an inhibition of 89%. The compound further came in with an ED50 in the series filed under Rattus norvegicus [2] of 0.5 mg/kg.

In series [1], `O=C(N1CCN(c2ccncc2Cl)CC1)N1CCN(S(=O)(=O)c2ccc(C(F)(F)F)cc2)CC1` showed an inhibition of 100%. The compound also showed an ED50 in the series filed under Rattus norvegicus [2] of 0.2 mg/kg. The compound also yielded an ED80 in the series listed under Rattus norvegicus [3] of 0.7 mg/kg.

In the series on Rattus norvegicus [6], `O=C(c1ccc(C(F)(F)F)cc1)N1CCC(=Cc2ccc(C3=NCCO3)cc2)CC1` displayed a Reduction of 15%.

The compound `O=C(N1CCC(c2ccncc2)CC1)N1CCN(S(=O)(=O)c2ccc(Cl)cc2)CC1` gave a pKa in series [4] of 5.8. In series [1], this compound had an inhibition of 91%. In the series listed under Rattus norvegicus [2], this compound came in with an ED50 of 1.7 mg/kg. This compound registered an ED80 in the series listed under Rattus norvegicus [3] of 3.6 mg/kg.

Consider `O=C(C1CCN(c2ccncc2)CC1)N1CCN(S(=O)(=O)c2ccc(Br)cc2)CC1`, for which the Reduction in the series on Rattus norvegicus [7] is 64%.

Consider `O=C(N1CCN(c2ccncc2Cl)CC1)N1CCN(S(=O)(=O)c2ccc(Br)cc2)CC1`, for which the inhibition in series [1] came to 100%. In the series filed under Rattus norvegicus [2], this compound gave an ED50 of 1.1 mg/kg. The same compound returned an ED80 in the series listed under Rattus norvegicus [3] of 2.3 mg/kg.

`O=C(N1CCC(c2ccncc2)CC1)N1CCN(S(=O)(=O)c2ccc(F)cc2)CC1` gave an inhibition in series [1] of 97%. The compound further displayed an ED50 in the series filed under Rattus norvegicus [2] of 0.5 mg/kg.

For the compound `O=C(C1CCN(c2ccncn2)CC1)N1CCN(S(=O)(=O)c2ccc(Br)cc2)CC1`, it took a dose of 0.4 mg/kg to reach the 50% effect level in the series listed under Rattus norvegicus [2] (ED50). Further, the Reduction with Rattus norvegicus [6] came out at 17%.

Take `O=C(c1ccc(Cl)cc1)c1ccc(OC2CN3CCC2CC3)cc1` (stereo not given): in series [8], the IC50 worked out at 58 nM.

In general, inhibition refers to the relative decrease from the control value, in per cent. A higher inhibition goes with strong suppression. What is called ED50 is the dose that gives a 50% effect, or the effect in half of the subjects. Read a low ED50 as greater potency. The pKa is the negative logarithm of the acid dissociation constant. Higher therefore signals a weaker acid or stronger base. Broadly, the IC50 is the concentration that gives 50% inhibition. A high value points to a need for much substance.

These data come from ChEMBL document CHEMBL1133920, “Novel 4-piperidinopyridine inhibitors of oxidosqualene cyclase-lanosterol synthase derived by consideration of inhibitor pK(a)” (Bioorg Med Chem Lett, 2001).
